Results on ten compounds are retold here after patent US7408071B2, “N-aryl pyrrolidine derivatives as beta-secretase inhibitors” (Bristol-Myers Squibb Company, priority 2006, dated 2008).

One may read the IC50 as the point on the concentration scale where inhibition reaches its midpoint.

The target of the experiment is T1, BACE1 enzyme (Homo sapiens, UniProt P56817).
T1 construct: The HEK293-9B.A1 cell line, which overexpresses the BACE1 enzyme, was derived from HEK293 cells; endogenous in cells; washed 48,000xg membrane pellet/homogenate
The experiment in a line: Radioligand displacement assay with a radiolabeled BACE inhibitor on HEK293-9B.A1 cell homogenate. It is filed as binding. The note with it: displacement of 1 nM tritiated radioligand, HEK293-9B.A1 homogenate, pH 5.0, 1.5 hr at 25° C.; read-out: Activity Rating (activity based on IC50 values). The source says:
There are a number of methods by which inhibitors of the BACE enzyme can be identified experimentally. The enzyme can be obtained from membrane samples from natural tissues or cultured cells or can be expressed recombinantly in a host cell by well known methods of molecular biology. The whole enzyme or a portion thereof can be expressed, for example, in bacterial, insect or mammalian cells to obtain a catalytically active enzyme species. The enzymatic activity and/or ligand binding capability of the enzyme can be assessed within these membrane samples, or the enzyme can be purified to varying extents. As an illustrative example, the nucleic acid sequence encoding the pro and catalytic domains of human BACE can be appended on the 5′ end with an untranslated and signal sequence from the gene for acetylcholinesterase, and on the 3′ end with a sequence encoding a poly-histidine tag. This cDNA can then be expressed in Drosophila melanogaster S2 cells in which the signal and pro sequences of the transcribed/translated protein are removed by cellular proteases and the catalytic domain, appended by a C-terminal poly-histidine tag, is secreted out into the cellular medium. The enzyme can then be purified from the culture medium by nickel affinity chromatography by methods well known to those trained in the art [Mallender, W. et al., (2001) “Characterization of recombinant, soluble beta-secretase from an insect cell expression system.” Mol. Pharmacol. 59: 619-626]. Similar strategies for expressing and purifying various forms of BACE in bacterial, mammalian and other cell types would be known to one skilled in the art. A preferred method for determining the potency of a test compound in binding to the BACE enzyme is by monitoring the displacement of a suitable radioligand.
Radioligand displacement assays with a radiolabeled BACE inhibitor (WO 2004 013098, compound 3, where the methoxy group is substituted for C(^3H)3) were carried out using standard methods (Keen, M. (1999) in Receptor Binding Techniques (Walker, J. M. ed) p. 106 Humana Press, Totowa, N.J.). The HEK293-9B.A1 cell line, which overexpresses the BACE1 enzyme, was derived from HEK293 cells (Simmons, N. L. (1990) A cultured human renal epithelioid cell line responsive to vasoactive intestinal peptide. Exp. Physiol. 75:309-19.) by RAGE™ (Harrington, J. J. et al. (2001) Creation of genome-wide protein expression libraries using random activation of gene expression. Nat. Biotechnol. 19:440-5.; U.S. Pat. Nos. 6,410,266 and 6,361,972). T225 flask cultures of HEK293-9B.A1 were grown to 80% confluency in DMEM supplemented with 2 mM L-glutamine, 10 μg/ml penicillin, 10 μg/ml streptomycin, 3 μg/ml puromycin, 100 nM methotrexate, and 10% fetal bovine serum (Invitrogen, Carlsbad, Calif.), harvested, and resuspended at 2×10^8 cells per 10 ml of lysis buffer consisting of 50 mM HEPES pH 7.0 containing a protease inhibitor cocktail of AEBSF 104 μM, aprotinin 80 nM, leupeptin 2 μM, bestatin 4 μM, pepstatin A 1.5 μM, and E-64 1.4 μM (0.1% of protease inhibitor cocktail P8340, Sigma-Aldrich, St. Louis, Mo.) at 4° C. The resuspended cells were homogenized using a Polytron (Brinkman, Westbury, N.Y.) at setting 6 for 10 sec., then centrifuged at 48,000×g for 10 min. The resulting pellet was washed by repeating the resuspension, homogenization and centrifugation steps. The final pellet was resuspended in buffer at 4° C. to yield a total protein concentration of 5 mg/ml, then aliquots were frozen in liquid nitrogen for further storage at −70° C. Immediately before carrying out a binding assay, an aliquot of cell homogenate was thawed and diluted to a concentration of 100 μg/ml in assay buffer consisting of 50 mM HEPES pH 5.0 and 0.1% CHAPSO. […]
In general terms: In a radioligand displacement assay an active substance lowers the binding of a labelled ligand.

T1 sequence (P56817 46-501): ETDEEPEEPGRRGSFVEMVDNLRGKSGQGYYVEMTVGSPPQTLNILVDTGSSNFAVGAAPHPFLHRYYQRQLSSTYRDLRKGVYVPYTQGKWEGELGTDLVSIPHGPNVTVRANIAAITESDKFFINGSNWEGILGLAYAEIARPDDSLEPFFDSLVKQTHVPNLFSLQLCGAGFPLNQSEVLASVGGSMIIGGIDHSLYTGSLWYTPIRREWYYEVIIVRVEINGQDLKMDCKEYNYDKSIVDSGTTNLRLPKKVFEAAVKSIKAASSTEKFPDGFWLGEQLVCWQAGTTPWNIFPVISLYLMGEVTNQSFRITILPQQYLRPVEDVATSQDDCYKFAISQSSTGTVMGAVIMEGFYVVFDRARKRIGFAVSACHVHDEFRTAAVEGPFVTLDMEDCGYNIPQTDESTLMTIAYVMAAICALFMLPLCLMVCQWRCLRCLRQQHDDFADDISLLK

Turning to `COc1ccc(N2CCC[C@H]2C(=O)/N=C(\N)NCc2cc(Cl)c(N)c(Cl)c2)cc1` [Example 4, (S)—N-((4-Amino-3,5-dichlorobenzylamino)(amino)methylene)-1-(4-methoxyphenyl)pyrrolidine-2-carboxamide], the IC50 lay within 100 to 1000 nM.
For the compound `CC(=O)Nc1c(Cl)cc(CN/C(N)=N/C(=O)C2C3CC3CN2c2ccccc2)cc1Cl` (stereo not drawn) [Example 34, cis-N-((4-Acetamido-3,5-dichlorobenzylamino)(amino)methylene)-3-phenyl-3-azabicyclo[3.1.0]hexane-2-carboxamide], the IC50 lay within 100 to 1000 nM.
Under `CC(=O)Nc1c(Cl)cc(CN/C(N)=N/C(=O)[C@@H]2CCCN2c2ccccc2)cc1Cl` [Example 2, (S)—N-((4-Acetamido-3,5-dichlorobenzylamino)(amino)methylene)-1-phenylpyrrolidine-2-carboxamide] stands 100 to 1000 nM.
Under `COc1ccc(N2CCC[C@H]2C(=O)/N=C(\N)NCc2cc(Cl)c(NC(=O)CN(C)C)c(Cl)c2)cc1` [Example 6, (S)—N-((3,5-Dichloro-4-(2-(dimethylamino)acetamido)benzylamino)-(amino)methylene)-1-(4-methoxyphenyl)pyrrolidine-2-carboxamide] stands 100 to 1000 nM; under `CO[C@@H]1C[C@@H](C(=O)/N=C(\N)NCc2cc(Cl)c(NC(C)=O)c(Cl)c2)N(c2ccccc2)C1` [Example 32, (2S,4R)—N-((4-Acetamido-3,5-dichlorobenzylamino)(amino)-methylene)-4-methoxy-1-phenylpyrrolidine-2-carboxamide], below 100 nM.
For `CO[C@@H]1C[C@@H](C(=O)/N=C(\N)NCc2cc(Cl)c(NC(=O)CN(C)C)c(Cl)c2)N(c2ccccc2)C1` [Example 33, (2S,4R)—N-(Amino(3,5-dichloro-4-(2-(dimethylamino)acetamido)benzylamino)methylene)-4-methoxy-1-phenylpyrrolidine-2-carboxamide] the value was below 100 nM.
As to `CN(C)CC(=O)Nc1c(Cl)cc(CN/C(N)=N/C(=O)[C@@H]2CCCN2c2ccccc2)cc1Cl` [Example 3, (S)—N-((3,5-Dichloro-4-(2-(dimethylamino)-acetamido)-benzylamino)(amino)methylene)-1-phenylpyrrolidine-2-carboxamide], the IC50 is 100 to 1000 nM.
Under `COc1ccc(N2CCC[C@H]2C(=O)/N=C(\N)NCc2cc(Cl)c(NC(C)=O)c(Cl)c2)cc1` [Example 5, (S)—N-((4-Acetamido-3,5-dichlorobenzylamino)(amino)methylene)-1-(4-methoxyphenyl)pyrrolidine-2-carboxamide] stands 100 to 1000 nM; under `N/C(=N\C(=O)[C@@H]1CCCN1c1ccccc1)NCc1cc(Cl)c(N)c(Cl)c1` [Example 1, (S)—N-((4-Amino-3,5-dichlorobenzylamino)(amino)methylene)-1-phenylpyrrolidine-2-carboxamide], 100 to 1000 nM; under `CN(C)CC(=O)Nc1c(Cl)cc(CN/C(N)=N/C(=O)[C@H]2CCCN2c2ccc(C(F)(F)F)cc2)cc1Cl` [Example 31, (R)—N-(Amino(3,5-dichloro-4-(2-(dimethylamino)acetamido)-benzylamino)methylene)-1-(4-(trifluoromethyl)phenyl)pyrrolidine-2-carboxamide], below 100 nM.
